# Results from PubChem BioAssay (NCI).
#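 Results reflect a 48-hour exposure of cells in 96-well plates to compound at five concentrations. The concentration for 50% growth inhibition is given as GI50. At the TGI there is no net growth.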
# What was measured:
# Test in all cases: inhibition of tumour cell growth, NCI panel, 48 h
# SK-OV-3 ovarian = tested on: SK-OV-3 ovarian
# A549 NSCLC = tested on: A549 NSCLC
# NCI-H226 lung = tested on: NCI-H226 lung
# NCI/ADR-RES ovarian = tested on: NCI/ADR-RES ovarian
# LOX IMVI melanoma = tested on: LOX IMVI melanoma
# MCF7 breast = tested on: MCF7 breast
# K-562 leukemia = tested on: K-562 leukemia
# SK-MEL-2 melanoma = tested on: SK-MEL-2 melanoma
# MALME-3M melanoma = tested on: MALME-3M melanoma
# SR leukemia = tested on: SR leukemia
# U251 CNS = tested on: U251 CNS
# UACC-62 melanoma = tested on: UACC-62 melanoma
# KM12 colon = tested on: KM12 colon
# SF-539 CNS = tested on: SF-539 CNS
# SW-620 colon = tested on: SW-620 colon
# HOP-92 NSCLC = tested on: HOP-92 NSCLC
# HOP-62 NSCLC = tested on: HOP-62 NSCLC
# PC-3 prostate = tested on: PC-3 prostate
# EKVX NSCLC = tested on: EKVX NSCLC
# MOLT-4 leukemia = tested on: MOLT-4 leukemia
# SNB-19 CNS = tested on: SNB-19 CNS
# MDA-MB-231 breast = tested on: MDA-MB-231 breast
# OVCAR-5 ovarian = tested on: OVCAR-5 ovarian
# SF-268 CNS = tested on: SF-268 CNS
# HCT-116 colon = tested on: HCT-116 colon
# HCC-2998 colon = tested on: HCC-2998 colon
# ACHN renal = tested on: ACHN renal
# HL-60(TB) leukemia = tested on: HL-60(TB) leukemia
# SK-MEL-28 melanoma = tested on: SK-MEL-28 melanoma
# A498 renal = tested on: A498 renal
# NCI-H23 lung = tested on: NCI-H23 lung
# SNB-75 CNS = tested on: SNB-75 CNS
# T-47D breast = tested on: T-47D breast
# SF-295 CNS = tested on: SF-295 CNS
# TK-10 renal = tested on: TK-10 renal
# CAKI-1 renal = tested on: CAKI-1 renal
# HCT-15 colon = tested on: HCT-15 colon
# CCRF-CEM leukemia = tested on: CCRF-CEM leukemia
# IGROV1 ovarian = tested on: IGROV1 ovarian
# M14 melanoma = tested on: M14 melanoma
# OVCAR-3 ovarian = tested on: OVCAR-3 ovarian
# DU-145 prostate = tested on: DU-145 prostate
# RPMI-8226 leukemia = tested on: RPMI-8226 leukemia
# UACC-257 melanoma = tested on: UACC-257 melanoma
# SN12C renal = tested on: SN12C renal
# 786-0 renal = tested on: 786-0 renal
# OVCAR-4 ovarian = tested on: OVCAR-4 ovarian
# MDA-MB-435 = tested on: MDA-MB-435
# SK-MEL-5 melanoma = tested on: SK-MEL-5 melanoma
# COLO 205 colon = tested on: COLO 205 colon
# BT-549 breast = tested on: BT-549 breast
# OVCAR-8 ovarian = tested on: OVCAR-8 ovarian
# HS 578T breast = tested on: HS 578T breast
# NCI-H460 lung = tested on: NCI-H460 lung
# UO-31 renal = tested on: UO-31 renal
# NCI-H522 lung = tested on: NCI-H522 lung
# HT29 colon = tested on: HT29 colon
structure (smiles),measurement,setting,value
COc1cccc2c1c(C(=O)C(=O)Nc1cc(C)no1)cn2Cc1ccc(F)cc1,GI50,SK-OV-3 ovarian,31.4 µM
same,TGI,SK-OV-3 ovarian,> 100 µM
same,GI50,A549 NSCLC,23.8 µM
same,TGI,A549 NSCLC,> 100 µM
same,GI50,NCI-H226 lung,36.2 µM
same,TGI,NCI-H226 lung,> 100 µM
same,GI50,NCI/ADR-RES ovarian,3.78 µM
same,TGI,NCI/ADR-RES ovarian,> 24 µM
same,GI50,LOX IMVI melanoma,7.87 µM
same,TGI,LOX IMVI melanoma,> 100 µM
same,GI50,MCF7 breast,3.27 µM
same,TGI,MCF7 breast,> 90.6 µM
same,GI50,K-562 leukemia,1.91 µM
same,TGI,K-562 leukemia,> 36.5 µM
same,GI50,SK-MEL-2 melanoma,8.48 µM
same,TGI,SK-MEL-2 melanoma,> 87.3 µM
same,GI50,MALME-3M melanoma,93.2 µM
same,TGI,MALME-3M melanoma,> 100 µM
same,GI50,SR leukemia,0.573 µM
same,TGI,SR leukemia,> 100 µM
same,GI50,U251 CNS,4.78 µM
same,TGI,U251 CNS,> 100 µM
same,GI50,UACC-62 melanoma,3.29 µM
same,TGI,UACC-62 melanoma,> 100 µM
same,GI50,KM12 colon,2.19 µM
same,TGI,KM12 colon,> 44.4 µM
same,GI50,SF-539 CNS,7.52 µM
same,TGI,SF-539 CNS,> 80 µM
same,GI50,SW-620 colon,3.68 µM
same,TGI,SW-620 colon,> 100 µM
same,GI50,HOP-92 NSCLC,14.2 µM
same,TGI,HOP-92 NSCLC,> 66 µM
same,GI50,HOP-62 NSCLC,> 35.9 µM
same,TGI,HOP-62 NSCLC,> 100 µM
same,GI50,PC-3 prostate,11 µM
same,TGI,PC-3 prostate,> 84.9 µM
same,GI50,EKVX NSCLC,32.6 µM
same,TGI,EKVX NSCLC,> 100 µM
same,GI50,MOLT-4 leukemia,3.99 µM
same,TGI,MOLT-4 leukemia,> 60.7 µM
same,GI50,SNB-19 CNS,10.1 µM
same,TGI,SNB-19 CNS,> 100 µM
same,GI50,MDA-MB-231 breast,5.41 µM
same,TGI,MDA-MB-231 breast,> 100 µM
same,GI50,OVCAR-5 ovarian,> 55.5 µM
same,TGI,OVCAR-5 ovarian,> 100 µM
same,GI50,SF-268 CNS,8.73 µM
same,TGI,SF-268 CNS,> 100 µM
same,GI50,HCT-116 colon,5.58 µM
same,TGI,HCT-116 colon,> 64.1 µM
same,GI50,HCC-2998 colon,37 µM
same,TGI,HCC-2998 colon,> 100 µM
same,GI50,ACHN renal,15.4 µM
same,TGI,ACHN renal,> 100 µM
same,GI50,HL-60(TB) leukemia,2.2 µM
same,TGI,HL-60(TB) leukemia,> 20.2 µM
same,GI50,SK-MEL-28 melanoma,7.59 µM
same,TGI,SK-MEL-28 melanoma,> 89.6 µM
same,GI50,A498 renal,19.6 µM
same,TGI,A498 renal,> 67.5 µM
same,GI50,NCI-H23 lung,> 40.5 µM
same,TGI,NCI-H23 lung,> 84 µM
same,GI50,SNB-75 CNS,3.42 µM
same,TGI,SNB-75 CNS,> 73.5 µM
same,GI50,T-47D breast,5.17 µM
same,TGI,T-47D breast,> 100 µM
same,GI50,SF-295 CNS,6.26 µM
same,TGI,SF-295 CNS,> 100 µM
same,GI50,TK-10 renal,15.3 µM
same,TGI,TK-10 renal,> 100 µM
same,GI50,CAKI-1 renal,5.92 µM
same,TGI,CAKI-1 renal,> 45.4 µM
same,GI50,HCT-15 colon,2.64 µM
same,TGI,HCT-15 colon,> 100 µM
same,GI50,CCRF-CEM leukemia,6.24 µM
same,TGI,CCRF-CEM leukemia,> 100 µM
same,GI50,IGROV1 ovarian,3.68 µM
same,TGI,IGROV1 ovarian,> 45.8 µM
same,GI50,M14 melanoma,5.42 µM
same,TGI,M14 melanoma,> 79.9 µM
same,GI50,OVCAR-3 ovarian,2.62 µM
same,TGI,OVCAR-3 ovarian,> 27.3 µM
same,GI50,DU-145 prostate,19.4 µM
same,TGI,DU-145 prostate,> 100 µM
same,GI50,RPMI-8226 leukemia,2.11 µM
same,TGI,RPMI-8226 leukemia,> 24.2 µM
same,GI50,UACC-257 melanoma,9.25 µM
same,TGI,UACC-257 melanoma,71.8 µM
same,GI50,SN12C renal,8.28 µM
same,TGI,SN12C renal,> 81.8 µM
same,GI50,786-0 renal,19.2 µM
same,TGI,786-0 renal,> 100 µM
same,GI50,OVCAR-4 ovarian,24 µM
same,TGI,OVCAR-4 ovarian,> 100 µM
same,GI50,MDA-MB-435,1.08 µM
same,TGI,MDA-MB-435,3.64 µM
same,GI50,SK-MEL-5 melanoma,3.08 µM
same,TGI,SK-MEL-5 melanoma,25.6 µM
same,GI50,COLO 205 colon,13.8 µM
same,TGI,COLO 205 colon,53 µM
same,GI50,BT-549 breast,5.36 µM
same,TGI,BT-549 breast,> 100 µM
same,GI50,OVCAR-8 ovarian,25.2 µM
same,TGI,OVCAR-8 ovarian,> 100 µM
same,GI50,HS 578T breast,3.47 µM
same,TGI,HS 578T breast,> 56.9 µM
same,GI50,NCI-H460 lung,5.15 µM
same,TGI,NCI-H460 lung,46.9 µM
same,GI50,UO-31 renal,8.77 µM
same,TGI,UO-31 renal,> 100 µM
same,GI50,NCI-H522 lung,8.51 µM
same,TGI,NCI-H522 lung,> 100 µM
same,GI50,HT29 colon,3.32 µM
same,TGI,HT29 colon,> 100 µM
